Like-named read-outs stand apart in the source and are kept apart here.
How the values were obtained:
Myzus persicae [1] = test: Myzus persicae - spray test (MYZUPE), Chinese cabbage leaf discs; assay type: in vivo; conditions: foliar, 120 h, 5 dat; for percent efficacy (aphid mortality) at 100 g/ha: 100 g of ai/ha; for percent efficacy (aphid mortality) at 20 g/ha: 20 g of ai/ha
Protocol: Myzus persicae—Spray Test (MYZUPE)
Solvent: 78.0 parts by weight of acetone • • 1.5 parts by weight of dimethylformamide
(§1) Emulsifier: alkylaryl polyglycol ether
(§2) To produce a suitable active compound preparation, 1 part by weight of active compound is dissolved using the stated parts by weight of solvent and made up with water containing an emulsifier concentration of 1000 ppm until the desired concentration is attained. To produce further test concentrations, the formulation is diluted with emulsifier-containing water.
Discs of Chinese cabbage leaves (Brassica pekinensis) infested by all stages of the green peach aphid (Myzus persicae) are sprayed with an active compound preparation of the desired concentration.
(§3) After the desired period of time, the efficacy in % is determined. 100% means that all the aphids have been killed; 0% means that no aphids have been killed.

Myzus persicae [2] = test: Myzus persicae - spray test (Chinese cabbage leaf discs); assay type: in vivo; conditions: Myzus persicae, foliar; application rate 500 g/ha, after 5-6 days; read-out: efficacy
Procedure, shortened: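 Chinese cabbage leaf discs carrying all aphid stages were sprayed with compound dissolved in acetone/dimethylformamide and diluted in water with 1000 ppm alkylaryl polyglycol ether emulsifier. Efficacy was recorded after 5-6 days as % aphids killed (100% = all, 0% = none).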

[3] = log P by HPLC on reversed-phase (C18) columns, OECD Guideline 117; assay type: physicochemical; conditions: reversed-phase (C18) HPLC column
Procedure, shortened: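 Reversed-phase C18 HPLC per OECD 117, LC-MS with a linear 10% to 95% acetonitrile gradient. Acidic method at pH 2.7 with 0.1% formic acid; neutral method at pH 7.8 with 0.001 M ammonium hydrogencarbonate.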

Myzus persicae [4] = test: Myzus persicae - oral test (MYZUPE O); assay type: in vivo; conditions: 120 h, 5 dat, read-out: % efficacy
Protocol: Myzus persicae—Oral Test (MYZUPE O)
Solvent: 100 parts by weight of acetone
To produce a suitable preparation of active compound, 1 part by weight of active compound is dissolved using the specified parts by weight of solvent and made up with water until the desired concentration is attained.
50 μl of the active compound preparation are transferred into microtitre plates and made up to a final volume of 200 μl with 150 μl of IPL41 insect medium (33%+15% sugar). Subsequently, the plates are sealed with parafilm, which a mixed population of green peach aphids (Myzus persicae) within a second microtitre plate is able to puncture and imbibe the solution through it.
as §3

Myzus persicae [5] = test: Myzus persicae - drench test (MYZUPE D), Savoy cabbage in soil; assay type: in vivo; conditions: 240 h, 10 dat, read-out: % efficacy
Protocol: Myzus persicae—Drench Test (MYZUPE D)
To produce a suitable active compound preparation, 1 part by weight of active compound is mixed with the specified amounts of solvent and emulsifier, and the concentrate is diluted with water to the desired concentration, it being necessary to include the volume of soil which is drenched in the calculation. It should be ensured that a concentration of 40 ppm of emulsifier in the soil is not exceeded. To produce further test concentrations, water is used for dilution.
Savoy cabbage (Brassica oleracea) in pots with soil and infested by all stages of the green peach aphid (Myzus persicae) is watered with an active compound preparation of the desired concentration.
as §3

Aphis gossypii = Aphis gossypii - spray test (APHIGO S), cotton plants; assay type: in vivo; conditions: 144 h, 6 dat, read-out: % efficacy
Protocol: Aphis gossypii—Spray Test (APHIGO S)
(§4) Solvent: 14 parts by weight of dimethylformamide
as §1
as §2, with “water. If the addition of ammonium salts or/and penetrants is required, these are each added in a concentration of 1000 ppm to the formulation solution.” for “water.”
Cotton plants (Gossypium hirsutum) heavily infested by the cotton aphid (Aphis gossypii) are sprayed with an active ingredient formulation of the desired concentration.
After the desired time, the kill in % is determined. 100% means that all the aphids have been killed; 0% means that no aphids have been killed.

Myzus persicae [6] = test: Myzus persicae - oral test; assay type: in vivo; conditions: Myzus persicae, po, 120 h; application rate 20 ppm, after 5 days; read-out: efficacy
Procedure, shortened: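 Aphid feeding test: compound dissolved in acetone, diluted with water and mixed with IPL41 insect medium plus sugar, offered through parafilm to a mixed population of green peach aphids. Mortality scored after 5 days as % efficacy (100% = all aphids dead, 0% = none dead).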

Myzus persicae [7] = test: Myzus persicae - spray test (MYZUPE S), bell pepper plants; assay type: in vivo; conditions: 144 h, 6 dat, read-out: % efficacy
Protocol: Myzus persicae—Spray Test (MYZUPE S)
as §4, §1
as §2, with “with” for “using”, “specified” for “stated”, “water. If the addition of ammonium salts or/and penetrants is required, these are each added in a concentration of 1000 ppm to the formulation solution.” for “water.”
Bell pepper plants (Capsicum annuum) severely infested with the green peach aphid (Myzus persicae) are treated by spraying with the active ingredient formulation in the desired concentration.
After the desired time, the kill in % is determined. 100% means that all the animals have been killed; 0% means that no animals have been killed.

[8] = acidic range, pH 2.7, 0.1% aqueous formic acid/acetonitrile, read-out: logP[a]
[9] = neutral range, pH 7.8, aqueous ammonium hydrogencarbonate/acetonitrile, read-out: logP[n]

| Structure (SMILES) | percent efficacy (aphid mortality) at 100 g/ha (Myzus persicae [1]) [%] | pest or weed control at 500 g/ha (Myzus persicae [2]) [%] | chromatographic logP [3, 8] | chromatographic logP [3, 9] | Emax at 4 ppm (Myzus persicae [4]) [%] | Emax at 0.16 ppm (Myzus persicae [5]) [%] | Emax at 0.8 ppm (Aphis gossypii) [%] | Emax at 4 ppm (Aphis gossypii) [%] | pest or weed control at 20 ppm (Myzus persicae [6]) [%] | Emax at 0.16 ppm (Myzus persicae [7]) [%] | percent efficacy (aphid mortality) at 20 g/ha (Myzus persicae [1]) [%] |
| --- | --- | --- | --- | --- | --- | --- | --- | --- | --- | --- | --- |
| CC(C)SCc1ncc(C(=O)N(C)c2cccnc2)n1C [Example I-1-29, 2-[(Isopropylsulphanyl)methyl]-N,1-dimethyl-N-(pyridin-3-yl)-1H-imidazole-5-carboxamide] | 90 | 90 | 0.76 | 1.5 | 100 | 98 | 98 | 100 | 100 | 99 |  |
| CCN(C(=O)c1cnc(CSCC(C)C)n1C)c1cccnc1 [Example I-1-51] | 90 | 100 | 1.32 | 2.05 | 100 | 98 | 99 | 99 | 100 | 99 | 90 |
| CC(C)CSCc1ncc(C(=O)N(C)c2cccnc2)n1C [Example I-1-31, 2-[(isobutylsulphanyl)methyl]-N,1-dimethyl-N-(pyridin-3-yl)-1H-imidazole-5-carboxamide] | 90 | 100 | 1.18 | 1.84 | 100 | 95 | 100 | 100 | 100 | 99 | 90 |
| CN(C(=O)c1cnc(CSCC(C)(C)C)n1C)c1cccnc1 [Example I-1-36] | 90 | 90 | 1.42 | 2.06 | 100 | 80 | 98 | 98 | 100 | 75 | 90 |
